Assay results reported in US20250387399A1, “TREATMENT OF A SELECTIVE POPULATION OF PATIENTS HAVING DEMENTIA WITH LEWY BODIES” (EIP Pharma, LLC, priority 2021, published 2025).

Experiments:
Format in all cases: in vivo, human
[1] = system: patients with mild-to-moderate DLB; assay: AscenD-LB phase 2 study: DLB specific Neuropsychological Test Battery (NTB) z-score
Experimental: (§1) With the objective of uniformly achieving a target average plasma drug concentration of 20 nM patients, dosing regimen after randomization to neflamapimod or placebo was based on weight: • Weight<80 kg: 40 mg neflamapimod capsule or matching placebo capsule BID • Weight≥80 kg: 40 mg neflamapimod capsule or matching placebo capsule TID
(§2) As a result, efficacy analyses compared: (1) all neflamapimod (i.e., including 40 mg BID and 40 mg TID) vs. placebo; (2) 40 mg TID (dose group that achieved target concentration) vs. placebo; and (3) 40 mg TID vs. placebo TID.
(§3) Plasma ptau181 levels were determined by SIMOA pTau181 Assay (Quanterix) at the VU Medical Center, where the in-house defined cut-off for tau pathology was set at 2.2 pg/mL.

[2] = system: patients with mild-to-moderate DLB; assay: AscenD-LB phase 2 study: Attention Composite z-score
Experimental: as §1, §2, §3

[3] = system: patients with mild-to-moderate DLB; assay: AscenD-LB phase 2 study: Timed Up and Go (TUG) test
Experimental: as §1, §2, §3

[4] = system: patients with mild-to-moderate DLB; assay: AscenD-LB phase 2 study: Clinical Dementia Rating Scale sum-of-boxes (CDR-SB)
Experimental: as §1, §2, §3

[5] = system: patients with mild-to-moderate DLB; assay: AscenD-LB phase 2 study: International Shopping List Test (ISLT); settings: patients with baseline plasma ptau181 <2.2 pg/mL, 16 weeks
Experimental: as §1, §2, §3

[6] = AscenD-LB phase 2 study: plasma drug concentration
Experimental: as §1
Trough plasma drug concentrations 50% lower with 40 mg BID vs. 40 mg TID

[7] = system: patients with mild-to-moderate DLB; assay: AscenD-LB phase 2 study: treatment effect by baseline plasma ptau181 status (all major endpoints)
Experimental: Up to half of patients with DLB have tau pathology, or “AD copathology” (van der Lee et al, 2021) and such co-pathology may impact response to cholinesterase inhibitors (Graff-Radford et al, 2012). In patients with DLB, plasma phospho-tau (either ptau217 or ptau181) correlates with tau-PET signal in the temporal cortex and predicts abnormal tau-PET status and CSF β-amyloid status (Hall et al, 2021). Accordingly, plasma ptau181 levels were assessed in plasma samples obtained during the screening phase of AscenD-LB. The results on the association of tau pathology to treatment outcome in AscenD-LB are described below.
as §3

[8] = 40 mg TID vs. placebo TID, baseline plasma ptau181 < 2.2 pg/mL
[9] = 40 mg TID vs. placebo, baseline plasma ptau181 < 2.2 pg/mL
[10] = all neflamapimod (40 mg BID and TID) vs. placebo, baseline plasma ptau181 < 2.2 pg/mL
[11] = overall population, 91-patient, 16-week study, main analysis
[12] = 40 mg TID vs. all placebo, patients with baseline plasma ptau181 <2.2 pg/mL, 16 weeks
[13] = 40 mg TID vs. placebo TID, patients with baseline plasma ptau181 <2.2 pg/mL, 16 weeks

O=c1ncn2nc(Sc3ccc(F)cc3F)ccc2c1-c1c(Cl)cccc1Cl [neflamapimod, 5-(2,6-dichlorophenyl)-2-(2,4-difluorophenylthio)-6H-pyrimido [1,6-b]pyridazin-6-one]
NTB z-score, difference vs. placebo (LMMRM) ([1]; 40 mg TID vs. all placebo, patients with baseline plasma ptau181 <2.2 pg/mL, 16 weeks, not significant): 0.21
NTB, Effect size, improvement in neflamapimod 40 mg TID vs. placebo TID [1, 8]: 0.61
NTB z-score, difference vs. placebo TID (LMMRM) ([1]; 40 mg TID vs. placebo TID, patients with baseline plasma ptau181 <2.2 pg/mL, 16 weeks, not significant): 0.25
NTB, Effect size, improvement in neflamapimod 40 mg TID vs. placebo [1, 9]: 0.56
NTB, Effect size, improvement in all neflamapimod vs. placebo [1, 10]: 0.15
cognition assessed by NTB, relative to placebo [1, 11]: significant improvement
attention composite z-score, difference vs. placebo (LMMRM) [2, 12]: 0.42 z-score
Attention, Effect size, improvement in neflamapimod 40 mg TID vs. placebo TID [2, 8]: 0.70
attention composite z-score, difference vs. placebo TID (LMMRM) [2, 13]: 0.46 z-score
Attention, Effect size, improvement in neflamapimod 40 mg TID vs. placebo [2, 9]: 0.78
Attention, Effect size, improvement in all neflamapimod vs. placebo [2, 10]: 0.29
TUG, difference vs. placebo (LMMRM) [3, 12]: -3.1 s
Timed up and Go, Effect size, improvement in neflamapimod 40 mg TID vs. placebo TID [3, 8]: 0.70
TUG, difference vs. placebo TID (LMMRM) [3, 13]: -3.5 s
Timed up and Go, Effect size, improvement in neflamapimod 40 mg TID vs. placebo [3, 9]: 0.74
Timed up and Go, Effect size, improvement in all neflamapimod vs. placebo [3, 10]: 0.40
motor function assessed by TUG test, relative to placebo [3, 11]: significant improvement
CDR-SB, difference vs. placebo (LMMRM) [4, 12]: −0.60 points
CDR-SB, Effect size, improvement in neflamapimod 40 mg TID vs. placebo TID [4, 8]: 0.98
CDR-SB, difference vs. placebo TID (LMMRM) [4, 13]: −0.93 points
CDR-SB, Effect size, improvement in neflamapimod 40 mg TID vs. placebo [4, 9]: 0.70
CDR-SB, Effect size, improvement in all neflamapimod vs. placebo [4, 10]: 0.58
cognition and function assessed by CDR-SB, relative to placebo [4, 11]: significant improvement
ISLD immediate recall, difference vs. placebo (LMMRM) ([5]; 40 mg TID vs. all placebo): 2.1 words
ISLD recognition, difference vs. placebo (LMMRM) ([5]; 40 mg TID vs. all placebo): 1.4 words
ISLD immediate recall, difference vs. placebo TID (LMMRM) ([5]; 40 mg TID vs. placebo TID): 2.3 words
ISLD recognition, difference vs. placebo TID (LMMRM) ([5]; 40 mg TID vs. placebo TID): 0.9 words
shortfall from target average plasma drug concentration (20 nM) ([6]; 40 mg BID (weight <80 kg)): 30-40%
trough plasma drug concentrations, lower with 40 mg BID vs. 40 mg TID ([6]; 40 mg BID vs. 40 mg TID): 50%
attainment of target average plasma drug concentration (20 nM) ([6]; 40 mg TID (weight ≥80 kg)): achieved target plasma drug concentration
treatment effect on NTB z-score, attention z-score, TUG, CDR-SB (descriptive evaluation) ([7]; patients below the threshold (2.2 pg/mL) for having tau pathology): positive treatment effects
treatment effect on NTB z-score, attention z-score, TUG, CDR-SB (descriptive evaluation) ([7]; patients with baseline plasma ptau181 above the threshold (2.2 pg/mL), i.e. with tau pathology): no discernible treatment effect
magnitude of treatment effect relative to placebo for the individual endpoints, ptau181 <2.2 pg/mL population compared to overall population ([7]; plasma ptau181 <2.2 pg/mL at baseline vs. overall population): 1.5 to 2.0 fold
